Earlier results as cited in PubChem BioAssay AID1259409 (Chemical Carcinogenesis Research Information System (CCRIS), 2018).
“And” between values parts separate entries of the source, which are not always exact repeats. Equal values may be shown once.

Tested on: rodent chemically induced tumor inhibition, incidence and multiplicity
Test: CCRIS tumor inhibitor studies

Compound: Oc1cc(O)c2c(c1)O[C@H](c1ccc(O)c(O)c1)[C@@H](O)C2
- tumour outcome (control, treated, inhibition, significance) (Carcinogen: 1,2-DIMETHYLHYDRAZINE [540-73-6], Species: RAT, Strain/Sex: WISTAR, Target Tissue: Type of Lesion: COLON, Dose [Carcinogen]: 20 MG/KG): 81.3%, 58.8%, 27.7%, p<0.05
- tumour outcome (control, treated, inhibition, significance) (Carcinogen: 7,12-DIMETHYLBENZ[A]ANTHRACENE, 57-97-6, Dose [Inhibitor]: 0, 0.2 ML OF A 1% SOLUTION 1/D FOR 2 WK APPLIED 5 MIN POST EACH CARCINOGEN DOSE THEN 1/D FOR 4 WK DURING PROMOTION STAGE, Route [Inhibitor]: DERMAL, Species: MOUSE, Strain/Sex: SWISS/MALE, Target Tissue: Type of Lesion: SKIN: PAPILLOMA, Dose [Carcinogen]: 0.2 ML OF A 0.24% SOLUTION IN DMSO 1/D FOR 2 WK, Promoter: CROTON OIL, 8001-28-3): 23/23 (100%), 16/23 (70%), 30%, not calculated
- tumour outcome (control, treated, inhibition, significance) (Carcinogen: 7,12-DIMETHYLBENZ[A]ANTHRACENE, 57-97-6, Dose [Inhibitor]: 0, 0.2 ML OF A 1% SOLUTION 1/D FOR 2 WK APPLIED 5 MIN PRIOR TO EACH CARCINOGEN DOSE (STUDY DURATION: 20 WK), Route [Inhibitor]: DERMAL, Species: MOUSE, Strain/Sex: SWISS/MALE, Target Tissue: Type of Lesion: SKIN: PAPILLOMA, Dose [Carcinogen]: 0.2 ML OF A 0.24% SOLUTION IN DMSO 1/D FOR 2 WK, Promoter: CROTON OIL, 8001-28-3): 23/23 (100%), 20/23 (87%), 13%, not calculated
- tumour outcome (control, treated, inhibition, significance) (Carcinogen: 7,12-DIMETHYLBENZ[A]ANTHRACENE, 57-97-6, Dose [Inhibitor]: 0, 2.5 MG/D IN DRINKING WATER FOR DURATION OF STUDY BEGINNING 2 WK PRIOR TO CARCINOGEN DOSE (STUDY DURATION: 6 MO), Route [Inhibitor]: ORAL, Species: RAT, Strain/Sex: WISTAR/FEMALE, Target Tissue: Type of Lesion: MAMMARY GLAND: TUMOR, Dose [Carcinogen]: 10 MG IN PEANUT OIL INJECTED INTO SUBCUTANEOUS POUCH CREATED IN THE 5TH AND 6TH MAMMARY GLAND REGION, Promoter: NONE USED): 20/20 (100%), 4/20 (20%), 80%, p<0.001
- tumour outcome (control, treated, inhibition, significance) (Carcinogen: 7,12-DIMETHYLBENZ[A]ANTHRACENE, 57-97-6, Dose [Inhibitor]: 0, 4 MG 2/WK FOR 20 WK BEGINNING 2 WK POST CARCINOGEN DOSE (STUDY DURATION: 22 WK), Route [Inhibitor]: DERMAL, Species: MOUSE, Strain/Sex: CF-1/FEMALE, Target Tissue: Type of Lesion: SKIN: PAPILLOMA, Dose [Carcinogen]: 25.6 UG ONCE, Promoter: 12-O-TETRADECANOYLPHORBOL-13-ACETATE, 16561-29-8): 97%, 97%, 0%, not significant
- tumour outcome (control, treated, inhibition, significance) (Carcinogen: 7,12-DIMETHYLBENZ[A]ANTHRACENE, 57-97-6, Dose [Inhibitor]: 0, 12 MG 2/WK FOR 20 WK BEGINNING 2 WK POST CARCINOGEN DOSE (STUDY DURATION: 22 WK), Route [Inhibitor]: DERMAL, Species: MOUSE, Strain/Sex: CF-1/FEMALE, Target Tissue: Type of Lesion: SKIN: PAPILLOMA, Dose [Carcinogen]: 25.6 UG ONCE, Promoter: 12-O-TETRADECANOYLPHORBOL-13-ACETATE, 16561-29-8): 97%, 91%, 6%, not significant
- tumour outcome (control, treated, inhibition, significance) (Carcinogen: BENZO[A]PYRENE, 50-32-8, Dose [Inhibitor]: 0, 2.5 MG/D IN DRINKING WATER FOR 8 WK BEGINNING 2 WK PRIOR TO CARCINOGEN TREATMENT (STUDY DURATION: 20 WK), Route [Inhibitor]: ORAL, Species: MOUSE, Strain/Sex: SWISS/FEMALE, Target Tissue: Type of Lesion: FORESTOMACH: TUMOR, Dose [Carcinogen]: 1 MG IN 0.1 ML PEANUT OIL 2/WK FOR 4 WK, Promoter: NONE USED): 20/20 (100%), 16/20 (80%), 20%, not significant
- tumour outcome (control, treated, inhibition, significance) (Carcinogen: METHYL(ACETOXYMETHYL)NITROSAMINE, 56856-83-8, Dose [Inhibitor]: 0, 1.7 MG/D IN DRINKING WATER FOR DURATION OF STUDY BEGINNING 2 WK PRIOR TO CARCINOGEN TREATMENT (STUDY DURATION: 13 MO), Route [Inhibitor]: ORAL, Species: HAMSTER, Strain/Sex: SYRIAN/FEMALE, Target Tissue: Type of Lesion: ORAL: CAVITY, Dose [Carcinogen]: 2 MG/KG BW APPLIED TO RIGHT CHEEK POUCH 2/MO FOR 6 MO, Promoter: NONE USED): 14/15 (93%), 4/15 (27%), 71%, p<0.001
- tumour outcome (control, treated, inhibition, significance) (Carcinogen: N-ETHYL-N-HYDROXYETHYLNITROSAMINE, 13147-25-6, Dose [Inhibitor]: 0, 0.8% IN DIET FOR 36 WK BEGINNING 1 WK POST CARCINOGEN TREATMENT (STUDY DURATION: 40 WK), Route [Inhibitor]: ORAL, Species: RAT, Strain/Sex: WISTAR/MALE, Target Tissue: Type of Lesion: KIDNEY: MICROADENOMA, Dose [Carcinogen]: 0.1% IN DRINKING WATER FOR 3 WK, Promoter: NONE USED): 11/17 (65%), 12/17 (71%), -9%, not significant
- tumour outcome (control, treated, inhibition, significance) (Carcinogen: N-ETHYL-N-HYDROXYETHYLNITROSAMINE, 13147-25-6, Dose [Inhibitor]: 0, 0.8% IN DIET FOR 36 WK BEGINNING 1 WK POST CARCINOGEN TREATMENT (STUDY DURATION: 40 WK), Route [Inhibitor]: ORAL, Species: RAT, Strain/Sex: WISTAR/MALE, Target Tissue: Type of Lesion: KIDNEY: RENAL CELL TUMOR, Dose [Carcinogen]: 0.1% IN DRINKING WATER FOR 3 WK, Promoter: NONE USED): 14/17 (82%), 11/17 (65%), 21%, not significant
- tumour outcome (control, treated, inhibition, significance) (Carcinogen: N-ETHYL-N-HYDROXYETHYLNITROSAMINE, 13147-25-6, Dose [Inhibitor]: 0, 0.8% IN DIET FOR 36 WK BEGINNING 1 WK POST CARCINOGEN TREATMENT (STUDY DURATION: 40 WK), Route [Inhibitor]: ORAL, Species: RAT, Strain/Sex: WISTAR/MALE, Target Tissue: Type of Lesion: LIVER: HEPATOCELLULAR ADENOMA, Dose [Carcinogen]: 0.1% IN DRINKING WATER FOR 3 WK, Promoter: NONE USED): 10/17 (59%), 11/17 (65%), -10%, not significant
- tumour outcome (control, treated, inhibition, significance) (Carcinogen: N-ETHYL-N-HYDROXYETHYLNITROSAMINE, 13147-25-6, Dose [Inhibitor]: 0, 0.8% IN DIET FOR 36 WK BEGINNING 1 WK POST CARCINOGEN TREATMENT (STUDY DURATION: 40 WK), Route [Inhibitor]: ORAL, Species: RAT, Strain/Sex: WISTAR/MALE, Target Tissue: Type of Lesion: LIVER: HEPATOCELLULAR CARCINOMA, Dose [Carcinogen]: 0.1% IN DRINKING WATER FOR 3 WK, Promoter: NONE USED): 7/17 (41%), 3/17 (18%), 56%, not significant
- tumour outcome (control, treated, inhibition, significance) (Carcinogen: N-NITROSOBIS(2-HYDROXYPROPYL)AMINE, 53609-64-6, Dose [Inhibitor]: 0, 1.5% IN DIET FOR 30 WK BEGINNING POST CARCINOGEN TREATMENT (STUDY DURATION: 35 WK), Route [Inhibitor]: ORAL, Species: HAMSTER, Strain/Sex: SYRIAN/MALE, Target Tissue: Type of Lesion: PANCREAS: ADENOCARCINOMA, Dose [Carcinogen]: 500 MG/KG 1/WK FOR 5 WK, Promoter: NONE USED): 8/17 (47%), 5/19 (26%), 45%, not significant
- tumour outcome (control, treated, inhibition, significance) (Carcinogen: NONE USED, Dose [Inhibitor]: 0, 2.5 MG/D IN DRINKING WATER FROM 8 MO OF AGE (STUDY DURATION: 15 MO), Route [Inhibitor]: ORAL, Species: MOUSE, Strain/Sex: C3H/FEMALE, Target Tissue: Type of Lesion: MAMMARY GLAND: TUMOR, Promoter: NONE USED): 12/20 (60%), 8/20 (40%), 33%, not calculated

Compound: COc1ccc(O)c(C(C)(C)C)c1
- tumour outcome (control, treated, inhibition, significance) (Carcinogen: BENZO[A]PYENE, 50-32-8, Dose [Inhibitor]: 0.28 MMOL/G DIET DAILY FOR 6 WK STARTING 14 D PRIOR TO THE FIRST UNTIL 1 D AFTER LAST CARCINOGEN DOSE FOLLOWED BY AN OBS, Route [Inhibitor]: ORAL, Species: MOUSE, Strain/Sex: STRAIN-A/FEMALE, Target Tissue: Type of Lesion: LUNG: ADENOMA, Dose [Carcinogen]: 3 MG IN 0.2 ML COTTONSEED OIL GIVEN 3X AT 2 WK INTERVALS, Promoter: NONE USED): 100%, 100%, 0%, not significant
- tumour outcome (control, treated, inhibition, significance) (Carcinogen: BENZO[A]PYRENE, 50-32-8, Dose [Inhibitor]: 0.03 MMOL/G OF DIET DAILY STARTING 7 D BEFORE AND CONTINUING THROUGH 3 D AFTER CARCINOGEN TREATMENT FOLLOWED BY OBSERVAT, Route [Inhibitor]: ORAL, Species: MOUSE, Strain/Sex: ICR/FEMALE, Target Tissue: Type of Lesion: FORESTOMACH: NEOPLASM, Dose [Carcinogen]: 1 MG IN 0.2 ML CORN OIL 2/WK FOR 4 WK, Promoter: NONE USED): 90%, 79%, 12%, not significant and 94%, 79%, 16%, not significant

Compound: CO[C@@H]1[C@H](OC(=O)NC(=O)CCl)CC[C@]2(CO2)[C@H]1[C@@]1(C)O[C@@H]1CC=C(C)C
- tumour outcome (control, treated, inhibition, significance) (Carcinogen: N-METHYL-N-NITROSOUREA, 684-93-5, Dose [Inhibitor]: 0, 1 UG/ML IN URINE 1/WK FOR 10 WK INSTILLED INTO HETEROTROPICALLY TRANSPLANTED BLADDER BEGINNING 21 WK POST CARCINOGEN, Route [Inhibitor]: INTRAVESICULAR, Species: RAT, Strain/Sex: F344/MALE, Target Tissue: Type of Lesion: BLADDER: TUMOR, Dose [Carcinogen]: 0.25 MG IN 0.5 ML OF 0.9% SALINE INSTILLED INTO HETEROTROPICALLY TRANSPLANTED BLADDER ONCE, Promoter: NONE USED): 24/38 (63%), 9/24 (38%), 40%, p=0.08
- tumour outcome (control, treated, inhibition, significance) (Carcinogen: N-METHYL-N-NITROSOUREA, 684-93-5, Dose [Inhibitor]: 0, 1 UG/ML IN URINE 1/WK FOR 27 WK INSTILLED INTO HETEROTROPICALLY TRANSPLANTED BLADDER BEGINNING 4 WK POST CARCINOGEN D, Route [Inhibitor]: INTRAVESICULAR, Species: RAT, Strain/Sex: F344/MALE, Target Tissue: Type of Lesion: BLADDER: TUMOR, Dose [Carcinogen]: 0.25 MG IN 0.5 ML OF 0.9% SALINE INSTILLED INTO HETEROTROPICALLY TRANSPLANTED BLADDER ONCE, Promoter: NONE USED): 24/38 (63%), 14/37 (38%), 40%, p<0.05
